According to paper PMC9739780, “Pharmacokinetic Comparison of Eight Major Compounds of Lonicerae japonicae flos after Oral Administration in Normal Rats and Rats with Liver Injury” (Molecules, 2022):

Columns and labels:
[1] = Pharmacokinetics after oral administration of LJF extract in CCl4-induced liver injury model rats; assay type: in vivo, Sprague-Dawley rats; details: for AUC(0-t) / AUC(0-inf) / Cmax / MRT last / MRT inf / Tmax / half-life: male, Sprague-Dawley
Method: Intraperitoneal injection of CCl4 was used to induce liver injury in rats, and the successful establishment of the model was measured by detecting ALT and AST in rat plasma.
(§1) This method has been successfully applied to study the pharmacokinetics of LJF orally in normal rats and acute liver injury rats. The pharmacokinetic parameters were analyzed using the […] model analysis on the DAS 2.0 platform. The mean plasma concentration–time curves of 3-CQA, 4-CQA, 5-CQA, 3,5-diCQA, 4,5-diCQA, PA, Secoxyloganin, and Sweroside are shown in Figure 4. Pharmacokinetic parameters included: Cmax, Tmax, area under the concentration–time curve (AUC0–t), AUC0–∞, MRT0–t, and MRT0–∞, as shown in Table 6 and Figure 4.
(§2) […] male Sprague-Dawley rats with body weights of 250 ± 20 g were purchased from the Experimental Animal Center of Heilongjiang University of Chinese Medicine and fed in the SPF animal laboratory, under a standard room temperature of 25 ± 2 °C, relative humidity of 50 ± 15%, and a 12 h light/12 h dark cycle. The experiment followed the ethical norms of experimental animals of Heilongjiang University of Chinese Medicine (License number: SCXK (Hei) 2021-004). Twelve rats were randomly divided into normal and model groups of six rats each. After intraperitoneal injection of CCl4 (0.06 mL/kg) for 24 h, blood samples were collected into heparinized tubes via the orbital vein, centrifuged at 2000 r/min for 20 min, and the levels of AST and ALT in serum were determined by the microplate method.
(§3) The pharmacokinetic properties and parameters of 3-CQA, 4-CQA, 5-CQA, 3,5-diCQA, 4,5-diCQA, PA, Secoxyloganin, and Sweroside in rats were studied after oral administration of the LJF extract. […] The supernatant plasma was then transferred to a 1.5 mL centrifuge tube and stored at −20 °C for later use.
(§4) Here, 100 μL aliquots of the plasma sample were thawed and pipetted into centrifuge tubes and 10 μL of chloramphenicol solution (500 ng/mL) and daidzein solution (500 ng/mL) were added, respectively, and 780 μL of methanol was added to precipitate for 5 min. Then, the supernatant was centrifuged for 5 min at 12,000 rp/min. The supernatant was transferred to a nitrogen blowing machine and dried at 40 °C. The residue was reconstituted in 100 μL of 50% methanol, and the sample was filtered through the membrane and then injected into the UPLC-MS/MS system.
(§5) DAS 2.0 software was used to calculate the pharmacokinetic parameters of the […] model, including Cmax, Tmax, AUC0–t, AUC0–∞, MRT0–t, MRT0–∞, and t1/2. The statistical software GraphPad Prism 5.0 was used for graph plotting and statistical analysis of drug duration curves.

[2] = Pharmacokinetics after oral administration of LJF extract in normal rats; assay type: in vivo, Sprague-Dawley rats
Method: as §1, §2, §3, §4, §5

[3] = rat, liver injury model group (M, CCl4), oral LJF ethanol extract 15.75 g/kg, plasma, mean ± SD, n = 6, read-out: AUC0–t
[4] = rat, liver injury model group (M, CCl4), oral LJF ethanol extract 15.75 g/kg, plasma, mean ± SD, n = 6, read-out: AUC0–∞
[5] = rat, liver injury model group (M, CCl4), oral LJF ethanol extract 15.75 g/kg, plasma, mean ± SD, n = 6, read-out: Cmax
[6] = rat, liver injury model group (M, CCl4), oral LJF ethanol extract 15.75 g/kg, plasma, mean ± SD, n = 6, read-out: MRT0–t
[7] = rat, liver injury model group (M, CCl4), oral LJF ethanol extract 15.75 g/kg, plasma, mean ± SD, n = 6, read-out: MRT0–∞
[8] = rat, liver injury model group (M, CCl4), oral LJF ethanol extract 15.75 g/kg, plasma, mean ± SD, n = 6, read-out: Tmax
[9] = rat, liver injury model group (M, CCl4), oral LJF ethanol extract 15.75 g/kg, plasma, mean ± SD, n = 6, read-out: t1/2 (converted)
[10] = result in words, oral LJF extract, rat plasma
[11] = male, Sprague-Dawley, rat, normal group (N), oral LJF ethanol extract 15.75 g/kg, plasma, mean ± SD, n = 6, read-out: AUC0–t
[12] = male, Sprague-Dawley, rat, normal group (N), oral LJF ethanol extract 15.75 g/kg, plasma, mean ± SD, n = 6, read-out: AUC0–∞
[13] = male, Sprague-Dawley, rat, normal group (N), oral LJF ethanol extract 15.75 g/kg, plasma, mean ± SD, n = 6, read-out: Cmax
[14] = male, Sprague-Dawley, rat, normal group (N), oral LJF ethanol extract 15.75 g/kg, plasma, mean ± SD, n = 6, read-out: MRT0–t
[15] = male, Sprague-Dawley, rat, normal group (N), oral LJF ethanol extract 15.75 g/kg, plasma, mean ± SD, n = 6, read-out: MRT0–∞
[16] = male, Sprague-Dawley, rat, normal group (N), oral LJF ethanol extract 15.75 g/kg, plasma, mean ± SD, n = 6, read-out: Tmax
[17] = male, Sprague-Dawley, rat, normal group (N), oral LJF ethanol extract 15.75 g/kg, plasma, mean ± SD, n = 6, read-out: t1/2 (converted)
[18] = male, Sprague-Dawley, rat, in vivo, po, 15.75 g/kg

Row | SMILES | AUC(0-t) [2, 11] [ng·h/mL] | AUC(0-inf) [2, 12] [ng·h/mL] | Cmax [2, 13] [ng/mL] | MRT last [2, 14] [h] | MRT inf [2, 15] [h] | Tmax [2, 16] [h] | half-life [2, 17] [h] | AUC(0-t) [1, 3] [ng·h/mL] | AUC(0-inf) [1, 4] [ng·h/mL] | Cmax [1, 5] [ng/mL] | MRT last [1, 6] [h] | MRT inf [1, 7] [h] | Tmax [1, 8] [h] | half-life [1, 9] [h] | AUC0–t, model group compared with the normal group [1, 10] | AUC0–∞, model group compared with the normal group [1, 10] | Cmax, model group compared with the normal group [1, 10] | AUC(0-inf) ([1]; rat, in vivo, po, 15.75 g/kg) [ng·h/mL] | AUC(0-t) ([1]; rat, in vivo, po, 15.75 g/kg) [ng·h/mL] | Tmax, model group compared with the normal group [1, 10] | further results
1 | C=C[C@H]1[C@H](O[C@@H]2O[C@H](CO)[C@@H](O)[C@H](O)[C@H]2O)OC=C(C(=O)OC)[C@H]1CC(=O)O [Secoxyloganin] |  |  |  |  |  |  |  |  |  |  |  |  |  |  |  |  |  | 17100 | 15000 |  | Cmax ([1]; rat, in vivo, po, 15.75 g/kg): 4150 ± 377 ng/mL; MRT inf ([1]; rat, in vivo, po, 15.75 g/kg): 18.2 ± 2.24 h; MRT last ([1]; rat, in vivo, po, 15.75 g/kg): 8.74 ± 0.58 h; Tmax ([1]; rat, in vivo, po, 15.75 g/kg): 0.29 ± 0.102 h; half-life ([1]; rat, in vivo, po, 15.75 g/kg): 23.6 ± 3.48 h; Cmax, model group compared with the normal group ([1]; rat, in vivo, po): significantly higher; MRT0–∞, model group compared with the normal group ([1]; rat, in vivo, po): significantly higher; Tmax, model group compared with the normal group ([1]; rat, in vivo, po): significantly lower; AUC(0-inf) [2, 18]: 7610 ± 4120 ng·h/mL; AUC(0-t) [2, 18]: 6230 ± 1070 ng·h/mL; Cmax [2, 18]: 1510 ± 331 ng/mL; MRT inf [2, 18]: 12.4 ± 1.04 h; MRT last [2, 18]: 11.9 ± 1.69 h; Tmax [2, 18]: 0.46 ± 0.102 h; half-life [2, 18]: 16.1 ± 19.1 h
2 | C=C[C@H]1[C@H](O[C@@H]2O[C@H](CO)[C@@H](O)[C@H](O)[C@H]2O)OC=C2C(=O)OCC[C@H]21 [Sweroside] |  |  |  |  |  |  |  |  |  |  |  |  |  |  |  |  |  | 16700 | 16000 |  | Cmax ([1]; rat, in vivo, po, 15.75 g/kg): 2364.23 ± 440 ng/mL; MRT inf ([1]; rat, in vivo, po, 15.75 g/kg): 13.7 ± 1.33 h; MRT last ([1]; rat, in vivo, po, 15.75 g/kg): 11.3 ± 0.48 h; Tmax ([1]; rat, in vivo, po, 15.75 g/kg): 0.67 ± 0.26 h; half-life ([1]; rat, in vivo, po, 15.75 g/kg): 11.8 ± 1.51 h; AUC0–∞, model group compared with the normal group ([1]; rat, in vivo, po): significantly higher; Cmax, model group compared with the normal group ([1]; rat, in vivo, po): increased compared with that in the normal group, but there was no significant difference; AUC(0-inf) [2, 18]: 10000 ng·h/mL; AUC(0-t) [2, 18]: 9690 ± 1410 ng·h/mL; Cmax [2, 18]: 1930 ± 609 ng/mL; MRT0–t [2, 18]: 12.29 ± 1.14 h; MRT inf [2, 18]: 13.9 ± 1.86 h; Tmax [2, 18]: 0.53 ± 0.38 h; half-life [2, 18]: 9.78 ± 2.87 h
3 | O=C(/C=C/c1ccc(O)c(O)c1)O[C@@H]1C[C@](O)(C(=O)O)C[C@@H](O)[C@H]1O [5-CQA, 5-caffeoylquinic acid] |  |  | 266 ± 102 | 18 ± 2.34 | 21.4 ± 2.86 |  | 17.9 ± 9.97 | 3570 ± 686 | 3970 ± 712 | 1120 ± 316 |  | 20.9 ± 8.54 |  | 18.9 ± 18.4 | increased | increased | increased |  |  | not significantly different | MRT0–t ([1]; liver injury model group (M, CCl4), oral LJF ethanol extract 15.75 g/kg, plasma, mean ± SD, n = 6): 11.08 ± 2.42 h; Tmax ([2]; normal group (N), oral LJF ethanol extract 15.75 g/kg, plasma, mean ± SD, n = 6): 0.24 ± 0.03405 h
4 | O=C(O)c1ccc(O)c(O)c1 [PA, protocatechuic acid] | 198 ± 37 | 292 ± 26 | 22.6 ± 8.36 | 23.2 ± 0.86 | 44.1 ± 16.9 | 0.33 ± 0.13 | 24.8 ± 12.8 | 219 ± 59.1 | 547 ± 209 | 23 ± 2.97 | 26.6 ± 2.13 | 49.8 ± 28.9 | 0.18 ± 0.034 | 25.5 ± 17 |  | increased |  |  |  | reached the peak earlier | clearance rate, model group compared with the normal group ([1]; result in words, oral LJF extract): decreased; MRT0–t, model group compared with the normal group [1, 10]: prolonged

More lines, main results first:

Row | AUC(0-t) [2, 11] [ng·h/mL] | AUC(0-inf) [2, 12] [ng·h/mL] | Cmax [2, 13] [ng/mL] | MRT last [2, 14] [h] | MRT inf [2, 15] [h] | Tmax [2, 16] [h] | half-life [2, 17] [h] | SMILES | AUC(0-t) [1, 3] [ng·h/mL] | AUC(0-inf) [1, 4] [ng·h/mL] | Cmax [1, 5] [ng/mL] | MRT last [1, 6] [h] | MRT inf [1, 7] [h] | Tmax [1, 8] [h] | half-life [1, 9] [h] | AUC0–t, model group compared with the normal group [1, 10] | AUC0–∞, model group compared with the normal group [1, 10] | Cmax, model group compared with the normal group [1, 10] | AUC(0-inf) ([1]; rat, in vivo, po, 15.75 g/kg) [ng·h/mL] | AUC(0-t) ([1]; rat, in vivo, po, 15.75 g/kg) [ng·h/mL] | Tmax, model group compared with the normal group [1, 10] | further results
5 | 12100 | 13100 | 5110 ± 1220 | 13.9 ± 1.31 | 18.2 ± 1.94 | 0.208 ± 0.0457 | 12.9 ± 0.765 | O=C(/C=C/c1ccc(O)c(O)c1)O[C@H]1C[C@](O)(C(=O)O)C[C@@H](O)[C@H]1O [3-CQA, 3-caffeoylquinic acid] | 16400 | 17400 | 6290 ± 1260 | 13.4 ± 1.67 | 23.3 ± 11.2 | 0.19 ± 0.043 | 12.2 ± 3.12 | significantly increased | significantly increased | increased but there was no significant difference |  |  |  | 
6 | 2170 ± 616 | 2340 ± 569 | 1110 ± 448 | 9.65 ± 1.72 | 14.7 ± 4.18 | 0.208 ± 0.0457 | 15.2 ± 5.24 | O=C(/C=C/c1ccc(O)c(O)c1)O[C@@H]1[C@H](O)C[C@@](O)(C(=O)O)C[C@@H]1O (stereo in doubt) [4-CQA, 4-caffeoylquinic acid] | 5970 ± 1800 | 6810 ± 1140 | 2370 ± 425 | 10.1 ± 1.06 | 29.7 ± 24.8 | 0.14 ± 0.043 | 42.2 ± 31.7 | increased | increased | increased |  |  | significantly decreased | 
